Results on five compounds are retold here after publication PMC9032516, “Targeting Zika Virus with New Brain- and Placenta-Crossing Peptide–Porphyrin Conjugates” (Pharmaceutics, 2022).

Where a name gives a salt, the structure may show the parent alone. Read-outs that look alike come from different tables or passages of the source. No end group written: not given here.

For one data set, the system named is HIV. More on the design: method as in 2 sources, one per row (each row's own in cited_ref): ref [24] as printed in Table 2, ref [2] in supplement ||| ref 23 = [23]; PMID 34033716; doi:10.1021/acs.bioconjchem.1c00123; 23. Mendonça D.A. Bakker M. Cruz-Oliveira C. Neves V. Jiménez M.A. Defaus S. Cavaco M. Veiga A.S. Cadima-Couto I. Castanho M.A.R.B. Penetrating the Blood-Brain Barrier with New Peptide–Porphyrin Conju. The note with it: in vitro; values marked a; ref [24] as printed in Table 2, ref [2] in supplement; cited from earlier work.

The next data set has as its system ZIKV^BR. The experiment in a line: ZIKV inactivation assay (plaque assay on Vero cells). It counts as cell-based, Zika virus. Conditions: 10^5 PFU ZIKV^BR pre-treated 1 h at 37 °C in the dark with 0.01–50 µM, titrated by plaque assay on Vero cells, three independent replicates. On the procedure: After infection, cells were cultured for 7 days.
Three independent replicates were performed.

Data set [1] relates to HBEC-5i human brain endothelia monolayer (in vitro BBB model). The experiment in a line: In vitro BBB integrity assay (FD4 permeability after incubation). It counts as cell-based. On the procedure: After 24 h incubation with PPCs, cells were washed with PBS and DMEM:F12 medium without phenol red. […] Three independent replicates were performed.
The nature of another data set: Serum stability. The note with it: human serum diluted 1:1 (v/v) with HEPES buffer, 0.05 mM in 1:1 human serum / HEPES buffer (10 mM, NaCl 150 mM, pH 7.8), 37 °C, methanol precipitation, three independent replicates, read-out: t1/2 in human serum (converted). Type of data set: in vitro ADME.

Description for Serum stability: Next, 600 µL of conjugate/peptide solution were mixed (1:1 v/v) with 600 µL of human serum, to a 0.05 mM final concentration. The mixture was incubated at 37 °C and, at various time points, 50 µL (in triplicate) were taken and precipitated with 200 µL cold methanol. The samples were centrifuged at 13,000 rpm, 10 min, +4 °C. Afterwards, 50 µL of each supernatant were injected on an LC-20AD instrument (Shimadzu) equipped with a Luna C18 column (4.6 mm × 50 mm, 3 µm, Phenomenex, Torrance, CA, USA) and analysed using a 0–95% linear gradient of MeCN into 0.1% TFA in H2O over 15 min with 1 mL/min flow rate. PDA detection at 220 nm and 401 nm was used and the half-life times were calculated by peak area integration at 401 nm, the λmax of MP and PP. Controls included blank serum (25 µL each of 1:1 v/v serum + HEPES buffer, then precipitation with 200 µL cold methanol), untreated conjugate/peptide (25 µL of 0.1 mM stock in HEPES buffer + 25 µL HEPES buffer, then precipitation with 200 µL cold methanol), and a zero-time sample (200 µL cold methanol + 25 µL serum + 25 µL 0.1 mM conjugate/peptide stock); the conjugate/peptide was added last to avoid any contact with protease. Controls were analysed by LC and LC-MS as above. Three independent replicates were performed.

The IC50 is the concentration at which inhibition is half-maximal. Turning to `CCC1=C(C)c2cc3[nH]c(cc4[nH]c(cc5nc(cc1n2)C(C)=C5CC)c(C)c4CCC(=O)O)c(CCC(=O)O)c3C` [MP, Mesoporphyrin IX dihydrochloride], the IC50 in the data set with HIV and with ZIKV^BR was greater than 50 µM in each case.

Regarding `C=CC1=C(C)c2cc3[nH]c(cc4nc(cc5[nH]c(cc1n2)c(C)c5CCC(=O)O)C(CCC(=O)O)=C4C)c(C)c3C=C` [PP, protoporphyrin IX], the half-maximal inhibitory concentration (IC50) in the data set with HIV was greater than 50 µM. In addition, the “FD4 permeability post-translocation (Basolateral Content), BBB” value in data set [1] (HBEC-5i monolayer after 24 h incubation with 10 µM compound, 4 kDa FITC-dextran apical, 2 h, fluorescence, three independent replicates, black bars Figure 1B, control (cells only) 10.3%) is recorded as 24.7%. In addition, the “increase in FD4 permeability over control values, BBB” value in data set [1] (HBEC-5i monolayer, 24.7% versus control 10.3%) was 2.5 fold.

As for VQQLTKRFSL-NH2 [P1], in “Serum stability” (HPLC), the half-life at 0.05 mM is 0.733 h.

For SGTQEEY-NH2 [P5, SGTQEEY-amide], the half-life at 0.05 mM in the data set “Serum stability” (over 24 h, HPLC peak area (401 nm for porphyrins)) was 2.2 h.

For the compound `O=C(O)CN(CCOCCOCCN(CC(=O)O)CC(=O)O)CC(=O)O` [EGTA], in data set [1], the “FD4 permeability post-translocation (Basolateral Content), BBB” value came out at 29.6%.
